Results: article PMC9090415, “Discovery of small molecule inhibitors of Plasmodium falciparum apicoplast DNA polymerase” (Journal of Enzyme Inhibition and Medicinal Chemistry, 2022)

Target: P. falciparum apicoplast DNA polymerase (Pf-apPOL) (Plasmodium falciparum, UniProt Q8ILY1)
Assay: Fluorescence-based high-throughput DNA polymerase assay (molecular beacon), primary screen and dose-response;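 as to % inhibition ApPOL 90': test concentration in µM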;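 as to % inhibition apPOL 180': test concentration in µM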
Assay type: biochemical
Details: for DNA Pol: 90 min, 10 µM; for IC50: supplemental file 2, sheet IC50 nontoxic compounds, Pf-apPOL
In short: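 Single-point screening used 10 µM compound with 20 nM polymerase, 20 nM hairpin substrate and 6 µM dNTPs for 90 min at 25 °C. Confirmatory titrations (2.5–80 µM) followed fluorescence at three times, and IC50 was derived from a fit including a cooperativity term n.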

P. falciparum apicoplast DNA polymerase (Pf-apPOL), sequence (Q8ILY1 entry or part of it): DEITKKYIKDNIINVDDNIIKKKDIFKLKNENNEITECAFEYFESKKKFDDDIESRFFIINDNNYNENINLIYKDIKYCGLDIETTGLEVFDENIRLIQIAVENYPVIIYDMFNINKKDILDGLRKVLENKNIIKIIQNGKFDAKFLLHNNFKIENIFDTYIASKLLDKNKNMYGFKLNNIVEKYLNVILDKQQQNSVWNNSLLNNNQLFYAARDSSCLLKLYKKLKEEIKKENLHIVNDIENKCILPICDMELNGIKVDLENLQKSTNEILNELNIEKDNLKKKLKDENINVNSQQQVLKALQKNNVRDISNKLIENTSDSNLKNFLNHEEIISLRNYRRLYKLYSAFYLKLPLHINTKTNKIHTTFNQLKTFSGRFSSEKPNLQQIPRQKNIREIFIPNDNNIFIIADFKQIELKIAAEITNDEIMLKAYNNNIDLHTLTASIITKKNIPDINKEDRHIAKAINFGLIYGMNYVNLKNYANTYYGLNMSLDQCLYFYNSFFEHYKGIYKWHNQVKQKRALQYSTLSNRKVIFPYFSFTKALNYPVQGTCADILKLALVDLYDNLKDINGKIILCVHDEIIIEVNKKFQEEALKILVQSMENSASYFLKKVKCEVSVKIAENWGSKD

`Cc1cccc(NC(=O)Cn2ccc3c(=O)[nH]ccc32)c1C` [Molecule 11, O=C(Cn1ccc2c1cc[nH]c2=O)Nc1cccc(c1C)C] was tested, and the “DNA Pol” value ('DNA Pol' of the 186 hits list (screen value)) was 54, the “% inhibition Apo pol 10'” value (DRC-1, conc 2.5) was 3.616% and the “% inhibition Apo pol 10'” value (DRC-1, conc 5) was 26.2157%. The “% inhibition Apo pol 10'” value (DRC-1, conc 10) was 64.035%, the “% inhibition Apo pol 10'” value (DRC-1, conc 20) was 84.2642% and the “% inhibition Apo pol 10'” value (DRC-1, conc 40) was 89.6589%. For the same molecule, the “% inhibition Apo pol 10'” value (DRC-1, conc 80) was 84.1772%, the “% inhibition Apol 90'” value (DRC-1, 90', conc 2.5) was 0.4643% and the “% inhibition Apol 90'” value (DRC-1, 90', conc 5) was 14.6206%. The “% inhibition Apol 90'” value (DRC-1, 90', conc 10) was 51.1257%, the “% inhibition Apol 90'” value (DRC-1, 90', conc 20) was 80.5216% and the “% inhibition Apol 90'” value (DRC-1, 90', conc 40) was 91.1147%. The “% inhibition Apol 90'” value (DRC-1, 90', conc 80) was 90.9413%, the “% inhibition apPOL 180'” value (DRC-1, 180', conc 2.5) was -2.306% and the “% inhibition apPOL 180'” value (DRC-1, 180', conc 5) was 3.486%. The “% inhibition apPOL 180'” value (DRC-1, 180', conc 10) was 34.4928%, the “% inhibition apPOL 180'” value (DRC-1, 180', conc 20) was 70.7317% and the “% inhibition apPOL 180'” value (DRC-1, 180', conc 40) was 89.3869%. For the same molecule, the “% inhibition apPOL 180'” value (DRC-1, 180', conc 80) was 93.0322%, the “% inhibition Apo pol 5'” value (DRC-2, 5', conc 2.5) was 1.64% and the “% inhibition Apo pol 5'” value (DRC-2, 5', conc 5) was 23%. The “% inhibition Apo pol 5'” value (DRC-2, 5', conc 10) was 46%, the “% inhibition Apo pol 5'” value (DRC-2, 5', conc 20) was 49% and the “% inhibition Apo pol 5'” value (DRC-2, 5', conc 40) was 47%. The “% inhibition Apo pol 5'” value (DRC-2, 5', conc 80) was 39%, the “% inhibition Apol 40'” value (DRC-2, 40', conc 2.5) was 0.556% and the “% inhibition Apol 40'” value (DRC-2, 40', conc 5) was 28%. For the same molecule, the “% inhibition Apol 40'” value (DRC-2, 40', conc 10) was 58%, the “% inhibition Apol 40'” value (DRC-2, 40', conc 20) was 67% and the “% inhibition Apol 40'” value (DRC-2, 40', conc 40) was 69%. For the same molecule, the “% inhibition Apol 40'” value (DRC-2, 40', conc 80) was 66%, the “% inhibition Apol 40'” value (DRC-2, 40', concentration 10) was 58% and the “% inhibition Apol 40'” value (DRC-2, 40', concentration 40) was 69%. For the same molecule, the “% inhibition ApPOL 90'” value (DRC-2, 90', conc 2.5) was -1.29%, the “% inhibition ApPOL 90'” value (DRC-2, 90', conc 5) was 24% and the “% inhibition ApPOL 90'” value (DRC-2, 90', conc 10) was 58%. The “% inhibition ApPOL 90'” value (DRC-2, 90', conc 20) was 70%, the “% inhibition ApPOL 90'” value (DRC-2, 90', conc 40) was 73% and the “% inhibition ApPOL 90'” value (DRC-2, 90', conc 80) was 72%. The “% inhibition ApPOL 90'” value (DRC-2, 90', concentration 10) was 58%, the “% inhibition apPOL 180'” value (DRC-2, 180', conc 2.5) was -8% and the “% inhibition apPOL 180'” value (DRC-2, 180', conc 5) was 13%. For the same molecule, the “% inhibition apPOL 180'” value (DRC-2, 180', conc 10) was 50%, the “% inhibition apPOL 180'” value (DRC-2, 180', conc 20) was 69% and the “% inhibition apPOL 180'” value (DRC-2, 180', conc 40) was 77%. The “% inhibition apPOL 180'” value (DRC-2, 180', conc 80) was 77%, the “% inhibition apPOL 180'” value (DRC-2, 180', concentration 20) was 69% and the “% inhibition apPOL 180'” value (DRC-2, 180', concentration 40) was 77%. For the same molecule, the “% inhibition apPOL 180'” value (DRC-2, 180', concentration 80) was 77% and the “DNA Pol” value (primary screen value, "DNA Pol") was 54.

`Cc1cccc(NC(=O)Cn2ccc3c(=O)[nH]ccc32)c1C` [Molecule 11] showed an IC50 of 7.57 µM.

With `Cc1cccc(CC(=O)N2CCc3c(nc4cc(-c5ccccc5)[nH]n4c3=O)C2)c1` [Molecule 12, Cc1cccc(c1)CC(=O)N1CCc2c(C1)nc1n(c2=O)[nH]c(c1)c1ccccc1] the “% inhibition Apo pol 10'” value (DRC-1, concentration 2.5) was 15%, the “% inhibition Apo pol 10'” value (DRC-1, concentration 5) was 48% and the “% inhibition Apo pol 10'” value (DRC-1, concentration 10) was 68%. The “% inhibition Apo pol 10'” value (DRC-1, concentration 20) was 81%, the “% inhibition Apo pol 10'” value (DRC-1, concentration 40) was 86% and the “% inhibition Apo pol 10'” value (DRC-1, concentration 80) was 83%. The “% inhibition Apol 90'” value (DRC-1, 90', concentration 2.5) was 3.59%, the “% inhibition Apol 90'” value (DRC-1, 90', concentration 5) was 28% and the “% inhibition Apol 90'” value (DRC-1, 90', concentration 10) was 50%. The “% inhibition Apol 90'” value (DRC-1, 90', concentration 20) was 69%, the “% inhibition Apol 90'” value (DRC-1, 90', concentration 40) was 81% and the “% inhibition Apol 90'” value (DRC-1, 90', concentration 80) was 85%. The “% inhibition apPOL 180'” value (DRC-1, 180', concentration 2.5) was -4%, the “% inhibition apPOL 180'” value (DRC-1, 180', concentration 5) was 13% and the “% inhibition apPOL 180'” value (DRC-1, 180', concentration 10) was 32%. For the same molecule, the “% inhibition apPOL 180'” value (DRC-1, 180', concentration 20) was 55%, the “% inhibition apPOL 180'” value (DRC-1, 180', concentration 40) was 73% and the “% inhibition apPOL 180'” value (DRC-1, 180', concentration 80) was 82%. The “% inhibition Apo pol 5'” value (DRC-2, 5', concentration 10 (unit not given)) was 44%, the “% inhibition Apo pol 5'” value (DRC-2, 5', concentration 40 (unit not given)) was 48% and the “% inhibition Apol 40'” value (DRC-2, 40', concentration 40 (unit not given)) was 66%. The “% inhibition ApPOL 90'” value (DRC-2, 90', concentration 20 (unit not given)) was 66%, the “% inhibition ApPOL 90'” value (DRC-2, 90', concentration 40 (unit not given)) was 70% and the “% inhibition apPOL 180'” value (DRC-2, 180', concentration 10 (unit not given)) was 44%. The “% inhibition apPOL 180'” value (DRC-2, 180', concentration 40 (unit not given)) was 70%, the “% inhibition apPOL 180'” value (DRC-2, 180', concentration 80 (unit not given)) was 69% and the “% inhibition Apo pol 5'” value (DRC-2, 5', concentration 2.5) was 7%. The “% inhibition Apo pol 5'” value (DRC-2, 5', concentration 5) was 23%, the “% inhibition Apo pol 5'” value (DRC-2, 5', concentration 10) was 44% and the “% inhibition Apo pol 5'” value (DRC-2, 5', concentration 20) was 49%. For the same molecule, the “% inhibition Apo pol 5'” value (DRC-2, 5', concentration 40) was 48%, the “% inhibition Apo pol 5'” value (DRC-2, 5', concentration 80) was 43% and the “% inhibition Apol 40'” value (DRC-2, 40', concentration 2.5) was 5.58%. For the same molecule, the “% inhibition Apol 40'” value (DRC-2, 40', concentration 5) was 25%, the “% inhibition Apol 40'” value (DRC-2, 40', concentration 10) was 54% and the “% inhibition Apol 40'” value (DRC-2, 40', concentration 20) was 65%. For the same molecule, the “% inhibition Apol 40'” value (DRC-2, 40', concentration 40) was 66%, the “% inhibition Apol 40'” value (DRC-2, 40', concentration 80) was 62% and the “% inhibition ApPOL 90'” value (DRC-2, 90', concentration 2.5) was 4.61%. For the same molecule, the “% inhibition ApPOL 90'” value (DRC-2, 90', concentration 5) was 22%, the “% inhibition ApPOL 90'” value (DRC-2, 90', concentration 10) was 53% and the “% inhibition ApPOL 90'” value (DRC-2, 90', concentration 20) was 66%. For the same molecule, the “% inhibition ApPOL 90'” value (DRC-2, 90', concentration 40) was 70%, the “% inhibition ApPOL 90'” value (DRC-2, 90', concentration 80) was 67% and the “% inhibition apPOL 180'” value (DRC-2, 180', concentration 2.5) was 2.3%. The “% inhibition apPOL 180'” value (DRC-2, 180', concentration 5) was 12%, the “% inhibition apPOL 180'” value (DRC-2, 180', concentration 10) was 44% and the “% inhibition apPOL 180'” value (DRC-2, 180', concentration 20) was 63%. For the same molecule, the “% inhibition apPOL 180'” value (DRC-2, 180', concentration 40) was 70%, the “% inhibition apPOL 180'” value (DRC-2, 180', concentration 80) was 69% and the “% inhibition Apo pol 10'” value (first dose-response, concentration 5 (unit not given)) was 48%. The “% inhibition Apo pol 10'” value (first dose-response, concentration 20 (unit not given)) was 81%, the “% inhibition Apol 90'” value (first dose-response, 90', concentration 20 (unit not given)) was 69% and the “% inhibition Apol 90'” value (first dose-response, 90', concentration 40 (unit not given)) was 81%. The “DNA Pol” value (primary screen value of the 186 hits, unit not given) was 49 and the “DNA Pol” value (primary screen value, head "DNA Pol", unit not given) was 49.

Molecule `Cc1cccc(CC(=O)N2CCc3c(nc4cc(-c5ccccc5)[nH]n4c3=O)C2)c1` [Molecule 12] has an IC50 of 5.56 µM.
